Reference: patent US20230285405A1, “Pharmaceuticals for Treating or Preventing Nidoviruses and Picornaviruses” (priority 2020, published 2023)
Like-named read-outs stand apart in the source and are kept apart here.

Columns and labels:
SARS-CoV-2 [1] = test: SARS-CoV-2 plaque titers (progeny production); assay type: cell-based, SARS-CoV-2 (nCoV/Washington/1/2020); settings: 10 μM drug for 2 hours, MOI 0.5, supernatant collected 2 days after
Experimental: For SARS-CoV-2 plaque titers, cell supernatants from the infection described above were serially diluted (10-fold steps were used) and used to infect Vero E6 cells for 1 hour. Inoculum was removed and 1.25% methylcellulose DMEM solution was added to the cells and incubated for 3 days. Plates were fixed in 1:10 formalin for 1 hour, stained with crystal violet for 1 hour and were counted to determine plaque forming units (PFU)/ml.
The effect of several drugs on the production of viable progeny viruses was evaluated. Cells were treated with 10 μM of the drugs for 2 hours, infected at an MOI of 0.5 and the supernatant collected 2 days after for titration (FIG. 2C). Cepharanthine and azelastine completely eliminated SARS-CoV-2 progeny production (>5-logs decrease), while flupenthixol and desloratidine reduced viral titers by about 2-logs. Ultimately, the screen identified 20 safe-in-human drugs that are able to inhibit both OC43 and SARS-CoV-2 infection in vitro.

A549-mRuby cells = test: Drug screening: effect on cell growth (cell number day 4 / day 0); settings: 10 μM drug; for Growth_1: number of cells at day 4 divided by number of cells at day 0 / toxic_1: repeat #1; for Growth_2: number of cells at day 4 divided by number of cells at day 0 / toxic_2: repeat #2
Method in brief: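 Growth was scored as day 4/day 0 cell count from images of OC43-infected (MOI 0.3) A549-mRuby nuclear-reporter cells. Compounds were added at 10 μM final after a 1 h infection at 33° C, followed by 4 days of culture at 33° C in two independent screens.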

OC43 [2] = test: Drug screening: OC43 nucleoprotein staining in infected A549-mRuby cells; assay type: cell-based, human beta coronavirus OC43; settings: for activity at 10 µM: Betacoronavirus 1, OC43, 96 h
Method in brief: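 Repurposing screen: drugs at 10 μM final added 1 h after OC43 infection (MOI 0.3) of H2B-mRuby A549 cells, 4-day incubation at 33° C. Cell counts imaged at day 0 and day 4; nucleoprotein staining per cell normalized to untreated infected wells, hit threshold >3 SD in duplicate screens, non-toxic.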

SARS-CoV-2 [3] = test: microbe, parasite or virus in culture; assay type: cell-based, SARS-CoV-2 (nCoV/Washington/1/2020)
SARS-CoV-2 3CLpro = biological target: T1, SARS-CoV-2 3CLpro (Severe acute respiratory syndrome coronavirus 2, UniProt P0DTD1); assay type: cell-based
T1 construct: the SARS-CoV-2 main protease (also known as 3CLpro, Mpro and nsp5); expressed in transfected cells; host or cells: 293T cells

OC43 [4] = test: Dose-response analysis of OC43 infection; assay type: cell-based, human beta coronavirus OC43
Experimental: Dose-response analysis of OC43 infection was done similarly to the drug screening, except cells were seeded at a concentration of 5,000 cells per well and the media contained 2% BCS instead of 10% BCS. OC43 staining was performed 2 days after infection and analyzed similarly to what was described for the drug screening. A sigmoid fit was used to extract EC50 values using Matlab.

[5] = 10 μM drug, MOI 0.3, 4 days, OC43 staining normalized to no-drug controls, mean of the two screen repeats
[6] = Severe acute respiratory syndrome coronavirus 2; read-out: EC50 SARS2
[7] = Betacoronavirus 1, OC43, 48 h, read-out: EC50 OC43, A549-mRuby cells, staining 2 days after infection
[8] = 10 μM drug, MOI 0.3, 4 days, OC43 staining normalized to no-drug controls, mean of the two screen repeats, read-out: OC43_mean
[9] = 10 μM drug, MOI 0.3, 4 days, normalized to no-drug controls in the same plate, repeat #1, read-out: OC43_1: % staining of OC43 in screen repeat #1
[10] = 10 μM drug, MOI 0.3, 4 days, normalized to no-drug controls in the same plate, repeat #2, read-out: OC43_2: % staining of OC43 in screen repeat #2
[11] = 10 μM drug, MOI 0.3, 4 days, normalized to no-drug controls in the same plate, repeat #1
[12] = 10 μM drug, MOI 0.3, 4 days, normalized to no-drug controls in the same plate, repeat #2
[13] = A549-mRuby cells, staining 2 days after infection, read-out: EC50 OC43

Compound | Growth_1: number of cells at day 4 divided by number of cells at day 0 (A549-mRuby cells) | toxic_1 (A549-mRuby cells) | Growth_2: number of cells at day 4 divided by number of cells at day 0 (A549-mRuby cells) | toxic_2 (A549-mRuby cells) | OC43_mean (OC43 [2]; [5]) | EC50 (SARS-CoV-2 [3]; [6]) | 3CLpro activity: percentage of GFP-expressing cells (in words) (SARS-CoV-2 3CLpro) | EC50 (OC43 [4]; [7]) | hit_1 (OC43 [2]; 10 μM drug, repeat #1) | hit_2 (OC43 [2]; 10 μM drug, repeat #2) | activity at 10 µM (OC43 [2]; [8]) | activity at 10 µM (OC43 [2]; [9]) | activity at 10 µM (OC43 [2]; [10]) | OC43_1: % staining of OC43 in screen repeat #1 (OC43 [2]; [11]) | OC43_2: % staining of OC43 in screen repeat #2 (OC43 [2]; [12]) | EC50 (SARS-CoV-2 [3]; read-out: EC50 SARS2) | EC50 (OC43 [4]; [13]) | further results
Cl.Cl.OCCN1CCN(CCC=C2c3ccccc3Sc3ccc(C(F)(F)F)cc32)CC1 (mixture of isomers) [Flupenthixol dihydrochloride] | 2.1 | 0 | 3.3 | 0 | 21.0% | – | – | – | – | – | – | – | – | – | – | – | – | decrease of SARS-CoV-2 viral titers (progeny production) (SARS-CoV-2 [1]): about 2 logs; OC43_1: % staining of OC43 in screen repeat #1 (OC43 [2]): 8.7%; OC43_2: % staining of OC43 in screen repeat #2 (OC43 [2]): 33.3%; hit_1 (OC43 [2]): 1; hit_2 (OC43 [2]): 1
Cc1nc2c([nH]1)CCN(C(=O)c1ccc(NC(=O)c3ccccc3-c3ccccc3)cc1)c1ccccc1-2.O [Conivaptan HCl] | 4.2 | 0 | 4.7 | 0 | – | 4 µM | statistically significant decrease | 4.6 µM | 1 | 1 | 5.7% | 4.5% | 7% | – | – | – | – | –
Clc1ccc2c(c1)CCc1cccnc1C2=C1CCNCC1 [Desloratadine] | 4.8 | 0 | 4.4 | 0 | – | – | – | – | 1 | 1 | 19.3% | 13.2% | 25.4% | – | – | – | – | decrease of SARS-CoV-2 viral titers (progeny production) (SARS-CoV-2 [1]): about 2 logs
CS(=O)(=O)CCNCc1ccc(-c2ccc3ncnc(Nc4ccc(OCc5cccc(F)c5)c(Cl)c4)c3c2)o1 [Lapatinib] | 3.8 | – | 4.4 | – | 9.7% | – | statistically significant decrease | 3.1 µM | – | – | – | – | – | 5.2% | 14.1% | – | – | EC50 (SARS-CoV-2 [3]; Severe acute respiratory syndrome coronavirus 2, read-out: EC50 SARS2): 1.6 µM
O.O=C(c1ccc(OCCN2CCCCC2)cc1)c1c(-c2ccc(O)cc2)sc2cc(O)ccc12 [Raloxifene HCl] | 5.0 | 0 | 5.2 | 0 | – | 3.8 µM | – | 2.7 µM | 1 | 1 | 11.7% | 9.4% | 14% | – | – | – | – | –
O=C(O)CCC(=O)O.O=C(O[C@H]1CN2CCC1CC2)N1CCc2ccccc2[C@@H]1c1ccccc1 [Solifenacin succinate] | 5.0 | 0 | 5.0 | 0 | – | 3.6 µM | – | – | 1 | 1 | – | – | – | – | – | – | – | EC50 (OC43 [4]; Betacoronavirus 1, OC43, 48 h, read-out: EC50 OC43): 4.8 µM; activity at 10 µM (OC43 [2]; read-out: OC43_1: % staining of OC43 in screen repeat #1): 13%; activity at 10 µM (OC43 [2]; read-out: OC43_2: % staining of OC43 in screen repeat #2): 11.3%; activity at 10 µM (OC43 [2]; read-out: OC43_mean): 12.1%
N#Cc1ccc2[nH]cc(CCCCN3CCN(c4ccc5oc(C(N)=O)cc5c4)CC3)c2c1.O [Vilazodone HCl] | 3.5 | 0 | 3.9 | 0 | – | 4.5 µM | statistically significant decrease | 3.6 µM | 1 | 1 | 9.8% | 13% | 6.7% | – | – | – | – | –
Bafetinib [Bafetinib (INNO-406)] | 5.0 | 0 | 3.6 | 0 | 13.4% | – | statistically significant decrease | – | 1 | 1 | – | – | – | 17.2% | 9.6% | 2.2 µM | 2.1 µM | –
Retapamulin | 4.3 | 0 | 4.1 | 0 | – | – | statistically significant decrease | – | 1 | 1 | – | – | – | 11.7% | 12.6% | 8 µM | 4.5 µM | OC43_mean (OC43 [2]): 12.2%
Velpatasvir | 6.2 | 0 | 5.6 | 0 | 18.0% | – | – | – | 1 | 1 | – | – | – | 26.0% | 10.0% | > 10 µM | 2 µM | –
